Reference: publication PMC10310857 (Nature Communications, 2023)
Several values for one entry are separate records, joined by “and”; a condition that tells them apart may be missing. Identical values can stand only once.

Experiments:
GhMPK6 = system: GhMPK6; parameters: species or system Gossypium hirsutum cv. Lvmian; conditions: in vivo
GhRbohD = system: GhRbohD; parameters: species or system Gossypium hirsutum cv. Lvmian; conditions: in vivo

## O=C(NO)c1ccccc1 [Compound 1, benzohydroxamic acid]
GhMPK6
  GhMPK6 expression in cotton roots (Fig. 3e) Mean: 2.326 and 2.211 and 2.747 and 2.402
GhRbohD
  GhRbohD expression in cotton roots (Fig. 3f) Mean: 6.888 and 6.864 and 7.067 and 8.206
